US20200369629A1, “BENZAMIDE COMPOUNDS AND THEIR USE AS HERBICIDES” (BASF SE, priority 2017, published 2020)

Experiments:
Type in all cases: in vivo
[1] = tested on: ALOMY (Alopecurus myosuroiedes); experiment: Greenhouse pre-emergence test, test series 2, ALOMY; conditions: application rate 125 g/ha, scale 0 to 100 (100 = no emergence, 0 = no damage)
From the text: (§1) The seeds of the test plants were sown separately for each species. For the pre-emergence treatment, the active ingredients, which had been suspended or emulsified in water, were applied directly after sowing by means of finely distributing nozzles. The containers were irrigated gently to promote germination and growth and subsequently covered with transparent plastic hoods until the plants had rooted. This cover caused uniform germination of the test plants, unless this had been impaired by the active ingredients. For the post-emergence treatment, the test plants were first grown to a height of 3 to 15 cm, depending on the plant habit, and only then treated with the active ingredients which had been suspended or emulsified in water. For this purpose, the test plants were either sown directly and grown in the same containers, or they were first grown separately as seedlings and transplanted into the test containers a few days prior to treatment. Depending on the species, the plants were kept at 10-25° C. or 20-25° C., respectively. The test period extended over 2 to 4 weeks. During this time, the plants were tended, and their response to the individual treatments was evaluated. Evaluation was carried out using a scale from 0 to 100. 100 means no emergence of the plants, or complete destruction of at least the aerial moieties, and 0 means no damage, or normal course of growth. A good herbicidal activity is given at values of at least 70 and a very good herbicidal activity is given at values of at least 85. Test Series 2: At an application rate of 125 g/ha the following compounds were tested in pre-emergence tests against ALOMY (Alopecurus myosuroiedes)

[2] = tested on: AMARE (Amaranthus retroflexus); experiment: Greenhouse post-emergence test, test series 1, AMARE; conditions: application rate 62.5 g/ha, scale 0 to 100 (100 = complete destruction, 0 = no damage)
From the text: as §1, with “Series 1:” for “Series 2:”, “of 62.5” for “of 125”, “in post-emergence” for “in pre-emergence”, “tests against: AMARE (Amaranthus retroflexus)” for “tests against ALOMY (Alopecurus myosuroiedes)”

[3] = tested on: ALOMY (Alopecurus myosuroiedes); experiment: Greenhouse post-emergence test, test series 1, ALOMY; conditions: application rate 62.5 g/ha, scale 0 to 100 (100 = complete destruction, 0 = no damage)
From the text: as §1, with “Series 1:” for “Series 2:”, “of 62.5” for “of 125”, “in post-emergence” for “in pre-emergence”, “tests against:” for “tests against”

[4] = tested on: SETFA (Setaria faberi); experiment: Greenhouse pre-emergence test, test series 2, SETFA; conditions: application rate 125 g/ha, scale 0 to 100 (100 = no emergence, 0 = no damage)
From the text: as §1, with “SETFA (Setaria faberi)” for “ALOMY (Alopecurus myosuroiedes)”

Cc1c(NC(=O)N(C)CC(F)(F)F)c(Cl)cc(F)c1C(=O)Nc1nnnn1C [Example 12]
> 85%: pest or weed control at 125 g/ha [1] | pest or weed control at 62.5 g/ha [2] | pest or weed control at 62.5 g/ha [3]

Cc1c(NC(=O)N(CC(F)(F)F)C2CC2)c(Br)cc(F)c1C(=O)Nc1nnnn1C [Example 6]
> 85%: pest or weed control at 125 g/ha [1] | pest or weed control at 62.5 g/ha [2] | pest or weed control at 62.5 g/ha [3] | pest or weed control at 125 g/ha [4]

CCN(CC(F)(F)F)C(=O)Nc1c(Cl)cc(F)c(C(=O)Nc2nnnn2C)c1C [Example 18]
> 85%: pest or weed control at 125 g/ha [1] | pest or weed control at 62.5 g/ha [2] | pest or weed control at 62.5 g/ha [3] | pest or weed control at 125 g/ha [4]

Cc1c(NC(=O)N(C)CC(F)(F)F)c(Br)cc(F)c1C(=O)Nc1nnnn1C [Example 1, 4-bromo-6-fluoro-2-methyl-N-(1-methyltetrazol-5-yl)-3-[[methyl(2,2,2-trifluoroethyl)carbamoyl]amino]benzamide]
> 85%: pest or weed control at 125 g/ha [1] | pest or weed control at 62.5 g/ha [2] | pest or weed control at 62.5 g/ha [3] | pest or weed control at 125 g/ha [4]

CN(CC(F)(F)F)C(=O)Nc1c(Cl)cc(F)c(C(=O)Nc2nnnn2C)c1Cl [Example 9, 2,4-dichloro-6-fluoro-N-(1-methyltetrazol-5-yl)-3-[[methyl(2,2,2-trifluoroethyl)carbamoyl]amino]benzamide]
> 85%: pest or weed control at 125 g/ha [1] | pest or weed control at 62.5 g/ha [2] | pest or weed control at 62.5 g/ha [3]

Cc1c(NC(=O)N(CC(F)(F)F)CC(F)(F)F)c(Cl)cc(F)c1C(=O)Nc1nnnn1C [Example 19]
> 85%: pest or weed control at 125 g/ha [1] | pest or weed control at 62.5 g/ha [2] | pest or weed control at 62.5 g/ha [3]

Cc1c(NC(=O)N(CC(F)(F)F)CC(F)(F)F)c(Br)cc(F)c1C(=O)Nc1nnnn1C [Example 3]
> 85%: pest or weed control at 125 g/ha [1] | pest or weed control at 62.5 g/ha [2] | pest or weed control at 62.5 g/ha [3] | pest or weed control at 125 g/ha [4]

Cc1c(NC(=O)N(CC(F)(F)F)C2CC2)c(Cl)cc(F)c1C(=O)Nc1nnnn1C [Example 21]
> 85%: pest or weed control at 125 g/ha [1] | pest or weed control at 62.5 g/ha [2] | pest or weed control at 62.5 g/ha [3] | pest or weed control at 125 g/ha [4]

CC(C)N(CC(F)(F)F)C(=O)Nc1c(Cl)cc(F)c(C(=O)Nc2nnnn2C)c1Cl [Example 20]
> 85%: pest or weed control at 125 g/ha [1] | pest or weed control at 62.5 g/ha [2] | pest or weed control at 62.5 g/ha [3]

Cc1c(NC(=O)N(CC(F)(F)F)C(C)C)c(Cl)cc(F)c1C(=O)Nc1nnnn1C [Example 13]
> 85%: pest or weed control at 125 g/ha [1] | pest or weed control at 62.5 g/ha [2] | pest or weed control at 125 g/ha [4]

CCN(CC(F)(F)F)C(=O)Nc1c(Br)cc(F)c(C(=O)Nc2nnnn2C)c1C [Example 2, 4-bromo-6-fluoro-2-methyl-N-(1-methyltetrazol-5-yl)-3-[[ethyl(2,2,2-trifluoroethyl)carbamoyl]amino]benzamide]
> 85%: pest or weed control at 125 g/ha [1] | pest or weed control at 62.5 g/ha [2] | pest or weed control at 62.5 g/ha [3] | pest or weed control at 125 g/ha [4]

Cn1nnnc1NC(=O)c1c(F)cc(Cl)c(NC(=O)N(CC(F)(F)F)C2CC2)c1Cl [Example 7]
> 85%: pest or weed control at 125 g/ha [1] | pest or weed control at 62.5 g/ha [2] | pest or weed control at 62.5 g/ha [3] | pest or weed control at 125 g/ha [4]

Cn1nnnc1NC(=O)c1c(F)cc(C(F)(F)F)c(NC(=O)N(CC(F)(F)F)CC(F)(F)F)c1Cl [Example 22]
> 85%: pest or weed control at 125 g/ha [1] | pest or weed control at 62.5 g/ha [2] | pest or weed control at 62.5 g/ha [3] | pest or weed control at 125 g/ha [4]

CN(CC(F)(F)F)C(=O)Nc1c(C(F)(F)F)cc(F)c(C(=O)Nc2nnnn2C)c1Cl [Example 10]
> 85%: pest or weed control at 125 g/ha [1] | pest or weed control at 62.5 g/ha [2] | pest or weed control at 62.5 g/ha [3] | pest or weed control at 125 g/ha [4]

CCN(CC(F)(F)F)C(=O)Nc1c(Cl)cc(F)c(C(=O)Nc2nnnn2C)c1Cl [Example 8]
> 85%: pest or weed control at 125 g/ha [1] | pest or weed control at 62.5 g/ha [2] | pest or weed control at 125 g/ha [4]

CC(C)N(CC(F)(F)F)C(=O)Nc1c(C(F)(F)F)cc(F)c(C(=O)Nc2nnnn2C)c1Cl [Example 14]
> 85%: pest or weed control at 125 g/ha [1] | pest or weed control at 62.5 g/ha [2] | pest or weed control at 62.5 g/ha [3] | pest or weed control at 125 g/ha [4]
